In ChEMBL document CHEMBL1133297, “Synthesis and erythropoietin receptor binding affinities of N,N-disubstituted amino acids” (Bioorg Med Chem Lett, 2000):
Where a SMILES comes first, the peptide text is derived from it.

What was measured:
[1] = molecular target: T1, Erythropoietin receptor (Homo sapiens) (UniProt P19235); experiment: Compound was evaluated for inhibition of [125I]EPO binding to Erythropoietin receptor (EBP) at a concentration of 50 uM
T1 sequence (whole entry): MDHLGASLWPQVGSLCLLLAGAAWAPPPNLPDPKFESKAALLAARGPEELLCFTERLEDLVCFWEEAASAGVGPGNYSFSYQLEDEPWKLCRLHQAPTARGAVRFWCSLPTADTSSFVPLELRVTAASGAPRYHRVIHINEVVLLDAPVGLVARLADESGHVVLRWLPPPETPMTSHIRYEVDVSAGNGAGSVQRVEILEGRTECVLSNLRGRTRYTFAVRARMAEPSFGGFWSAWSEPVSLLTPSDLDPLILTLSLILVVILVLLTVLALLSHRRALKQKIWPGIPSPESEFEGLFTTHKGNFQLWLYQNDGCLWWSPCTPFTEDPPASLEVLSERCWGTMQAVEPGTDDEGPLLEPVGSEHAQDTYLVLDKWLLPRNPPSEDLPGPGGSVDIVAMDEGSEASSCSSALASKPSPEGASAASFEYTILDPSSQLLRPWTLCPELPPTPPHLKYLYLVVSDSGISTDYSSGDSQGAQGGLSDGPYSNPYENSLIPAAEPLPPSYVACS

Erythropoietin receptor [2] = molecular target: T2, Erythropoietin receptor (Homo sapiens, UniProt P19235); experiment: Compound was evaluated for inhibition of [125I]-EPO binding to Erythropoietin receptor (EBP)
T2 sequence (P19235 whole entry): T1 sequence (whole entry)

[3] = molecular target: T1, Erythropoietin receptor (Homo sapiens); experiment: Compound was evaluated for inhibition of [125I]EPO binding to EBP (erythropoietin receptor) at a concentration of 50 uM
Erythropoietin receptor [4] = molecular target: T2, Erythropoietin receptor; experiment: Compound was evaluated for inhibition of [125I]EPO binding to Erythropoietin receptor (EBP)

Row | Compound | inhibition [1] | IC50 (Erythropoietin receptor [2]) | inhibition [3] | IC50 (Erythropoietin receptor [4])
1 | COC(=O)[C@H](CCCCN)N(Cc1ccc(OCc2ccccc2)cc1)Cc1cccc([N+](=O)[O-])c1 | 37% |  |  | 
2 | C[C@@H](C(=O)O)N(C/C=C/c1cccc(Oc2ccccc2)c1)C/C=C/c1cccc(Oc2ccccc2)c1 | 72% | 40 µM |  | 
3 | O=C(O)CC[C@H](C(=O)NCCOCCOCCNC(=O)[C@H](CCC(=O)O)N(Cc1ccc(OCc2ccccc2)cc1)Cc1ccc(OCc2ccccc2)cc1)N(Cc1ccc(OCc2ccccc2)cc1)Cc1ccc(OCc2ccccc2)cc1 | 79% |  |  | 
4 | O=C(O)CCC(=O)NCCCC[C@H](C(=O)NCCOCCOCCNC(=O)[C@H](CCCCNC(=O)CCC(=O)O)N(Cc1ccc(OCc2ccccc2)cc1)Cc1ccc(OCc2ccccc2)cc1)N(Cc1ccc(OCc2ccccc2)cc1)Cc1ccc(OCc2ccccc2)cc1 | 93% | 1.5 µM |  | 
5 | COC(=O)[C@H](CCCCNS(C)(=O)=O)N(C/C=C/c1cccc(Oc2ccccc2)c1)C/C=C/c1cccc(Oc2ccccc2)c1 | 77% | 35 µM |  | 
6 | O=C(O)C[C@H](C(=O)NCCCOCCCCOCCCNC(=O)[C@H](CC(=O)O)N(Cc1ccc(OCc2ccccc2)cc1)Cc1ccc(OCc2ccccc2)cc1)N(Cc1ccc(OCc2ccccc2)cc1)Cc1ccc(OCc2ccccc2)cc1 | 75% | 18 µM |  | 
7 | COC(=O)[C@H](CCCCN)N(Cc1cccc(OCc2ccccc2)c1)Cc1cccc(OCc2ccccc2)c1 | 59% | 10 µM |  | 
8 | COC(=O)[C@H](CCCCNC(N)=O)N(C/C=C/c1cccc(Oc2ccccc2)c1)C/C=C/c1cccc(Oc2ccccc2)c1 | 73% | 35 µM |  | 
9 | COC(=O)[C@H](CCC(=O)OC(C)(C)C)N(C/C=C/c1cccc(Oc2ccccc2)c1)C/C=C/c1cccc(Oc2ccccc2)c1 | 0% |  |  | 
10 | CC(C)(C)c1ccc(Oc2cccc(/C=C/CN(C/C=C/c3cccc(Oc4ccc(C(C)(C)C)cc4)c3)[C@@H](CCC(=O)O)C(=O)O)c2)cc1 | 78% | 30 µM |  | 
11 | O=C(O)CCC(=O)NCCCC[C@@H](C(=O)NCCCOCCOCCOCCCNC(=O)[C@H](CCCCNC(=O)CCC(=O)O)N(Cc1ccc(OCc2ccccc2)cc1)Cc1ccc(OCc2ccccc2)cc1)N(Cc1ccc(OCc2ccccc2)cc1)Cc1ccc(OCc2ccccc2)cc1 | 77% | 7 µM |  | 
12 | CC(C)(C)OC(=O)CC[C@H](NC/C=C/c1cccc(Oc2ccccc2)c1)C(=O)O | 0% |  |  | 
13 | O=C(O)CC[C@@H](C(=O)O)N(C/C=C/c1cccc(Oc2cccc(C(F)(F)F)c2)c1)C/C=C/c1cccc(Oc2cccc(C(F)(F)F)c2)c1 | 70% | 35 µM |  | 
14 | COC(=O)[C@H](CCCCNC(=O)OC(C)(C)C)N(C/C=C/c1cccc(Oc2ccc(C(C)(C)C)cc2)c1)C/C=C/c1cccc(Oc2ccc(C(C)(C)C)cc2)c1 | 0% |  |  | 
15 | O=C(O)CCCC(=O)NCCCC[C@H](C(=O)NCCCCCCCCCCCCNC(=O)[C@H](CCCCNC(=O)CCCC(=O)O)N(Cc1ccc(OCc2ccccc2)cc1)Cc1ccc(OCc2ccccc2)cc1)N(Cc1ccc(OCc2ccccc2)cc1)Cc1ccc(OCc2ccccc2)cc1 | 55% | 85 µM |  | 
16 | COC(=O)[C@H](CCCCNC(=O)OC(C)(C)C)NC/C=C/c1cccc(Oc2ccccc2)c1 | 20% |  |  | 
17 | O=C(O)CCC(=O)NCCCC[C@H](C(=O)NCCCCCCCCCCCCNC(=O)[C@H](CCCCNC(=O)CCC(=O)O)N(Cc1ccc(OCc2ccccc2)cc1)Cc1ccc(OCc2ccccc2)cc1)N(Cc1ccc(OCc2ccccc2)cc1)Cc1ccc(OCc2ccccc2)cc1 | 56% | 100 µM |  | 
18 | O=C(O)CCC(=O)NCCCC[C@H](C(=O)NCCCOCCCCOCCCNC(=O)[C@H](CCCCNC(=O)CCC(=O)O)N(Cc1ccc(OCc2ccccc2)cc1)Cc1ccc(OCc2ccccc2)cc1)N(Cc1ccc(OCc2ccccc2)cc1)Cc1ccc(OCc2ccccc2)cc1 | 65% | 6 µM |  | 
19 | O=C(O)CCCC(=O)NCCCC[C@H](C(=O)NCCCOCCCCOCCCNC(=O)[C@H](CCCCNC(=O)CCCC(=O)O)N(Cc1ccc(OCc2ccccc2)cc1)Cc1ccc(OCc2ccccc2)cc1)N(Cc1ccc(OCc2ccccc2)cc1)Cc1ccc(OCc2ccccc2)cc1 | 82% | 4 µM |  | 
20 | COC(=O)[C@H](CCCCNC(=O)OC(C)(C)C)N(Cc1cccc(OCc2ccccc2)c1)Cc1cccc(OCc2ccccc2)c1 | 7% |  |  | 
21 | COC(=O)[C@H](CCC(=O)O)N(C/C=C/c1cccc(Oc2ccc(Cl)c(Cl)c2)c1)C/C=C/c1cccc(Oc2ccc(Cl)c(Cl)c2)c1 | 32% |  |  | 
22 | COC(=O)[C@H](CCCCNC(=O)OC(C)(C)C)N(Cc1ccc(OCc2ccccc2)cc1)Cc1ccc(OCc2ccccc2)cc1 | 5% |  |  | 

Row | Compound | inhibition [1] | IC50 (Erythropoietin receptor [2]) | inhibition [3] | IC50 (Erythropoietin receptor [4])
23 | COC(=O)[C@H](COC(C)(C)C)NC/C=C/c1cccc(Oc2ccccc2)c1 | 8% |  |  | 
24 | COC(=O)[C@H](CCC(=O)O)NC/C=C/c1cccc(Oc2ccccc2)c1 | 6% |  |  | 
25 | COC(=O)[C@H](CO)NC/C=C/c1cccc(Oc2ccccc2)c1 | 28% |  |  | 
26 | O=C(O)C[C@@H](C(=O)O)N(C/C=C/c1cccc(Oc2ccccc2)c1)C/C=C/c1cccc(Oc2ccccc2)c1 | 81% |  |  | 
27 | O=C(O)CC[C@H](NC/C=C/c1cccc(Oc2ccccc2)c1)C(=O)O | 0% |  |  | 
28 | O=C(O)CCCC(=O)NCCCC[C@@H](C(=O)NCCCOCCOCCOCCCNC(=O)[C@H](CCCCNC(=O)CCCC(=O)O)N(Cc1ccc(OCc2ccccc2)cc1)Cc1ccc(OCc2ccccc2)cc1)N(Cc1ccc(OCc2ccccc2)cc1)Cc1ccc(OCc2ccccc2)cc1 | 78% | 10 µM |  | 
29 | O=C(O)CCCC(=O)NCCCC[C@H](C(=O)NCCOCCOCCNC(=O)[C@H](CCCCNC(=O)CCCC(=O)O)N(Cc1ccc(OCc2ccccc2)cc1)Cc1ccc(OCc2ccccc2)cc1)N(Cc1ccc(OCc2ccccc2)cc1)Cc1ccc(OCc2ccccc2)cc1 | 88% | 1.5 µM |  | 
30 | O=C(O)CC[C@@H](C(=O)O)N(C/C=C/c1cccc(Oc2ccccc2)c1)C/C=C/c1cccc(Oc2ccccc2)c1 | 78% | 42 µM |  | 
31 | COC(=O)[C@H](CCCCNC(=O)OC(C)(C)C)N(C/C=C/c1cccc(Oc2ccccc2)c1)C/C=C/c1cccc(Oc2ccccc2)c1 | 0% |  |  | 
32 | COC(=O)[C@H](CO)N(C/C=C/c1cccc(Oc2ccccc2)c1)C/C=C/c1cccc(Oc2ccccc2)c1 | 57% | 145 µM |  | 
33 | NCCCC[C@H](C(=O)NCCOCCOCCNC(=O)[C@H](CCCCN)N(Cc1ccc(OCc2ccccc2)cc1)Cc1ccc(OCc2ccccc2)cc1)N(Cc1ccc(OCc2ccccc2)cc1)Cc1ccc(OCc2ccccc2)cc1 | 51% | 2 µM |  | 
34 | COC(=O)[C@H](CCCCN)N(Cc1ccc(OCc2ccccc2)cc1)Cc1ccc(OCc2ccccc2)cc1 | 54% |  |  | 
35 | CC(C)(C)OC(=O)C[C@@H](C(=O)OC(C)(C)C)N(C/C=C/c1cccc(Oc2ccccc2)c1)C/C=C/c1cccc(Oc2ccccc2)c1 | 20% |  |  | 
36 | COC(=O)[C@H](CCCCNC(=O)OC(C)(C)C)N(Cc1ccc(OCc2ccccc2)cc1)Cc1cccc([N+](=O)[O-])c1 | 24% |  |  | 
37 | O=C(O)CN(C/C=C/c1cccc(Oc2ccccc2)c1)C/C=C/c1cccc(Oc2ccccc2)c1 | 45% |  |  | 
38 | COC(=O)[C@H](CCC(=O)OC(C)(C)C)NC/C=C/c1cccc(Oc2ccccc2)c1 |  |  | 6% | 
39 | O=C(O)[C@H](CO)NC/C=C/c1cccc(Oc2ccccc2)c1 | 23% |  |  | 
40 | CC(C)C[C@@H]1NC(=O)[C@H]([C@@H](C)O)NC(=O)[C@H](Cc2c[nH]c3ccccc23)NC(=O)[C@H](C(C)C)NC(=O)[C@@H](NC(=O)[C@H](CCCCN)NC(=O)[C@@H]2CCCN2C(=O)[C@H](CCC(N)=O)NC(=O)CNC(=O)CN)CSSC[C@@H](C(=O)N[C@@H](Cc2ccc(O)cc2)C(=O)N[C@@H](CO)C(=O)N[C@H](C(=O)NCC(=O)NCC(N)=O)[C@@H](C)O)NC(=O)[C@H](Cc2c[nH]cn2)NC(=O)[C@H](Cc2ccccc2)NC(=O)CNC(=O)[C@@H]2CCCN2C1=O (HELM PEPTIDE1{G.G.Q.P.K.C.V.W.T.L.P.G.F.H.C.Y.S.T.G.G.[am]}$PEPTIDE1,PEPTIDE1,6:R3-15:R3$$$V2.0) |  |  |  | 5 µM
41 | COC(=O)[C@H](CCCCN)N(C/C=C/c1cccc(Oc2ccc(C(C)(C)C)cc2)c1)C/C=C/c1cccc(Oc2ccc(C(C)(C)C)cc2)c1 | 18% |  |  | 
42 | O=C(O)C[C@@H](C(=O)NCCCOCCOCCOCCCNC(=O)[C@H](CC(=O)O)N(Cc1ccc(OCc2ccccc2)cc1)Cc1ccc(OCc2ccccc2)cc1)N(Cc1ccc(OCc2ccccc2)cc1)Cc1ccc(OCc2ccccc2)cc1 | 66% | 28 µM |  | 
43 | COC(=O)[C@H](COC(C)(C)C)N(C/C=C/c1cccc(Oc2ccccc2)c1)C/C=C/c1cccc(Oc2ccccc2)c1 | 0% |  |  | 
